Key:
Gram Negative = experiment: Surface Antimicrobial Kill Testing Method, activity normalized to triclosan internal standard; assay type: cell-based; details: for antimicrobial activity (in words, comment on Table 1B): composition with nonionic surfactant and non-aqueous solvent; for antimicrobial benefit (in words, comment on Table 2B): DPGME / Surfonic L24-9 composition
Experimental: Inoculum is prepared by streaking microorganism onto a Tryptic Soy Agar (TSA) plate and incubating for 24 h at 33° C. Plated bacteria is resuspended in saline until the transmittance percentage falls within the accepted range for ˜10^8 cfu/mL. For K. pneumonia (Kp) and P. aeruginosa (Pa), this is 31.00-33.00% T. For S. aureus (Sa) this is 23.00-25.00% T. A 10× concentration is made by spinning down the prepared inoculum, removing the supernatant saline from the bacterial pellet, then resuspending the pellet in 1/10th of the original volume of saline. The final inoculum is prepared with 5% of “soil” in the form of Fetal Bovine Serum (FBS).
A 18×18 mm sterile glass coverslip is placed into an appropriate container (e.g. petri dish). 20 μL of prepared inoculum is added to the glass coverslip. Inoculum is then air-dried for 30 minutes in a 36° C. incubator. After drying, 40 μL of test sample is added on top of the dried inoculum. This is incubated at room temperature for the desired contact time. 5 mL of neutralizing media (Modified Letheen Broth+Tween+Lecithin (MLBTL)) is added to the coverslip and shaken on an orbital shaker for 5 minutes to ensure proper neutralization and extraction. Viability is then assessed of the neutralized and extracted sample by traditional/alternative microbiological techniques.
The normalized antimicrobial activity reported in the performance examples below was generated from detection time data obtained as described in the Surface Antimicrobial Kill Test Method. To account for day-to-day variability an internal standard was tested with each series. […] Normalized activity is reported following the equation 1 below.
Normalized Activity=(αΔDT−βΔDT)/(γΔDT−βΔDT) equation 1.
where, αΔDT is the average detection time of the antimicrobial compound, and γΔDT is the average detection time of the reference triclosan internal standard, and βΔDT is the average detection time of the background unperturbed bacteria.
Modified amino acids of the present disclosure were tested as aqueous solutions in the Surface Antimicrobial Kill Testing Method above. To prepare test solutions modified amino acids were first dissolved in the appropriate solvent. Second the selected surfactant is added to the mixture. After vortex (1 min, Vortex-2 Genie, vortex speed 8) mixing, the samples were then diluted with […] of reverse osmosis water (RO water, Millipore Direct-Q™, pH 6). The aqueous solution was then vortexed (1 min, Vortex-2 Genie, vortex speed 8), to which the second ½ portion of water is added. The pH of the solution was then adjusted to the target pH using either 1N HCl, Glacial Acetic Acid, or 1N NaOH. The final solution was then vortexed (1 min, Vortex-2 Genie, vortex speed 8). An example batch sheet is provided below in Table 1.
After treatment, microbial growth is referenced and reported to a triclosan sample and unaltered microbes according to the Normalization of Antimicrobial Activity provided above.

[1] = Stability of the isolated solid followed by 1H NMR; assay type: physicochemical; details: storage

| SMILES | antimicrobial activity (in words, comment on Table 1B) (Gram Negative) | stability of the independent solid by 1H NMR [1] | antimicrobial benefit (in words, comment on Table 2B) (Gram Negative) | antimicrobial efficacy versus pH (in words, comment on Table 3) (Gram Negative; composition pH of about 2 to less than about pH 9) | microbial activity with surfactants (in words, comment on Table 4) (Gram Negative; with non-ionic and amphoteric surfactants, isotropic solutions) |
| --- | --- | --- | --- | --- | --- |
| CCCCCCCCOC(=O)[C@@H](N)Cc1c[nH]c2ccccc12 [Synthetic Example 3] | highest antimicrobial activity | stable for several months | – | – | – |
| CC/C=C\CCCCCOC(=O)[C@@H](N)Cc1ccc(O)cc1 [Synthetic Example 6] | – | stable for several months | antimicrobial benefit over the solvent/surfactant alone and over Comparative Example C2 | – | – |
| CCCCCCCCCCCCOC(=O)[C@@H](N)Cc1c[nH]c2ccccc12 [Synthetic Example 4] | – | stable for several months | – | – | – |
| CCCCCC(CCC)COC(=O)[C@@H](N)Cc1ccc(O)cc1 (stereo partly shown) [Synthetic Example 7] | – | stable for several months | antimicrobial benefit over the solvent/surfactant alone and over Comparative Example C2 | – | – |
| CC(C)(C)OC(=O)[C@@H](N)Cc1c[nH]c2ccccc12 [Synthetic Example 1, L-tryptophan tert-butyl ester] | proved to be antimicrobial | stable for several months | – | – | – |
| CCCCCCCCOC(=O)[C@@H](N)Cc1ccc(O)cc1 [Synthetic Example 5] | – | stable for several months | antimicrobial benefit over the solvent/surfactant alone and over Comparative Example C2 | improved antimicrobial efficacy | improved microbial activity over the aqueous solution of the modified amino acid alone |

— patent US20230389545A1, “ANTIMICROBIAL COMPOSITION” (The Procter & Gamble Company, priority 2022, published 2023)
